“Also recorded” adds a separate entry of the source.
assay: Solution-phase UV-Vis spectrum (FIG. 2), wavelength distribution; type: physicochemical; details: P3 compared with Comparative Compound Z2
Description: FIG. 2 illustrates the solution-phase UV-Vis spectra of Compound P3 according to an exemplary embodiment of the present disclosure and Comparative Compound Z2 used in Comparative Example 2.
Since the compound according to an exemplary embodiment of the present disclosure may improve the light blocking efficiency or reduce the reflectance to external light by strongly absorbing light, the compound is excellent in wavelength compatibility in being included in an optical film. The wavelength compatibility can be confirmed by the wavelength distribution and the optimization appearing in the UV-Vis spectrum. For example, FIG. 2 illustrates the solution-phase UV-Vis spectra of Compound P3 according to an exemplary embodiment of the present disclosure and Comparative Compound Z2 used in Comparative Example 2. In FIG. 2, the dotted line is the solution-phase UV-Vis spectrum for Comparative Compound Z2, and the solid line is the solution-phase UV-Vis spectrum for Compound P3 according to an exemplary embodiment of the present disclosure.

Compound | wavelength distribution in solution-phase UV-Vis spectrum
Cc1ccccc1-n1nc(C)c(C=C2C(=O)N(C3CCCCC3)C(=O)N(C3CCCCC3)C2=O)c1O [Compound P3] | narrower wavelength distribution than Comparative Compound Z2; also recorded: wavelength distribution narrower and more optimized than Comparative Compound Z2

assay: Heat resistance of adhesive film sample (change in transmittance ΔT); type: physicochemical; details: ΔT of transmittance for light of 390 to 450 nm, 80° C. for 500 hours
Description: (§1) Based on 100 parts by weight a solid content except for a solvent in an adhesive composition, 95.4 parts by weight of an adhesive material (AD-701 solid content, LG Chem.), 0.29 part by weight of Compound P1, 0.1 part by weight of an isocyanate-based cross-linking agent (T39M, Soken Chemical & Engineering Co., Ltd.), 0.2 part by weight of a silane-based coupling agent (T-789J, Soken Chemical & Engineering Co., Ltd.), 0.5 part by weight of an antioxidant (Kinox-80, Hannong Chemicals Inc.), 1.5 parts by weight of an antistatic agent (FC-4400, 3M), 2 parts by weight of a hindered amine light stabilizer (Tinuvin 123, BASF SE), and 0.001 part by weight of a catalyst (dibutyltin dilaurate, Sigma-Aldrich) were added to the adhesive composition, the solvent (methyl ethyl ketone, MEK) was added thereto in an amount of 25 parts by weight based on the total parts by weight of the adhesive composition, and a release layer (PET) was coated with the adhesive composition mixed using a mixer (Shaker, SKC 6100, JEIO Tech.) to have a thickness of 22 μm to 23 μm using a knife bar coating apparatus (KP-3000, Kipae E&T Co., Ltd.), thereby preparing an adhesive film. After coating, the release layer was removed, and the adhesive film and a binder resin film (TAC: cellulose triacetate) were sequentially laminated on glass through lamination, thereby producing a sample.
(§2) The maximum absorption wavelength λmax (nm) of each of the adhesive composition and the adhesive film was measured using a UV-vis apparatus (Shimazu UV-3600). In addition, the transmittance of the sample for light with a wavelength of 390 to 450 nm was measured by the UV-vis apparatus (Shimazu UV-3600). Under conditions of light fastness 55,600 lx*48 hours; under conditions of heat resistance 80° C. and for 500 hours; or under conditions of moisture resistance 60° C., 90% RH and for 500 hours, the sample was each exposed, and then the transmittance for light with a wavelength of 390 to 450 nm was re-measured. ΔT was calculated by dividing the value obtained by […] by the transmittance value immediately after the sample was produced, and the results under the evaluation conditions are shown in Table 1. Furthermore, the transmittance of the sample for light in a region with a wavelength of 450 nm or more was measured by the UV-vis apparatus (Shimazu UV-3600). Further, the solubility of Compound p1 to methyl ethyl ketone (MEK) was measured under conditions of 1 atm and room temperature.
(§3) ΔT (%)={(transmittance measured immediately after the optical film was prepared−transmittance re-measured after the optical film is exposed to each condition of light fastness, heat resistance, and moisture resistance)/transmittance measured immediately after the optical film is prepared}×100
(§4) • ◯: ΔT 1.5% or less • Δ: ΔT more than 1.5% and 3% or less • X: ΔT more than 3%
(§5) The light fastness, heat resistance and moisture resistance were evaluated as ◯, Δ, and X based on whether the ΔT was 1.5% or less, more than 1.5% and 3% or less, or more than 3%, respectively.

Compound | Heat resistance
Cc1ccccc1-n1nc(C(C)C)c(C=C2C(=O)N(c3ccccc3)C(=O)N(c3ccccc3)C2=O)c1O [Compound P15] | ∘
O=C1C(=Cc2c(-c3ccccc3)nn(-c3ccccc3)c2O)C(=O)N(C2CCCCC2)C(=O)N1C1CCCCC1 [Compound P5] | ∘
Cc1nn(-c2ccccc2)c(O)c1C=C1C(=O)N(C2CCCCC2)C(=O)N(C2CCCCC2)C1=O [Compound P1] | Δ (ΔT more than 1.5% and 3% or less)
Cc1ccccc1-n1nc(C(C)C)c(C=C2C(=O)N(C3CCCCC3)C(=O)N(C3CCCCC3)C2=O)c1O [Compound P9] | ∘
Cc1ccc(-n2nc(C(C)C)c(C=C3C(=O)N(C4CCCCC4)C(=O)N(C4CCCCC4)C3=O)c2O)c(C)c1 [Compound P10] | ∘
Cc1ccccc1-n1nc(C)c(C=C2C(=O)N(C3CCCCC3)C(=O)N(C3CCCCC3)C2=O)c1O [Compound P3] | ∘

assay: Maximum absorption wavelength of the adhesive composition (solution), UV-vis; type: physicochemical; details: adhesive composition in MEK; UV-vis apparatus (Shimazu UV-3600)
Description: as §1, §2
(§6) Experiments were performed under the same conditions as in Example 1, except that Compounds P3 to P10, Compound P15 and Comparative Compounds Z1 and Z2 were used instead of Compound P1, respectively, in Example 1, and the experimental results are shown in the following Table 1.

Compound | λmax (nm) (Solution)
Cc1ccccc1-n1nc(C(C)C)c(C=C2C(=O)N(c3ccccc3)C(=O)N(c3ccccc3)C2=O)c1O [Compound P15] | 402
O=C1C(=Cc2c(-c3ccccc3)nn(-c3ccccc3)c2O)C(=O)N(C2CCCCC2)C(=O)N1C1CCCCC1 [Compound P5] | 407
Cc1nn(-c2ccccc2)c(O)c1C=C1C(=O)N(C2CCCCC2)C(=O)N(C2CCCCC2)C1=O [Compound P1] | 411
Cc1ccccc1-n1nc(C(C)C)c(C=C2C(=O)N(C3CCCCC3)C(=O)N(C3CCCCC3)C2=O)c1O [Compound P9] | 403
Cc1ccc(-n2nc(C(C)C)c(C=C3C(=O)N(C4CCCCC4)C(=O)N(C4CCCCC4)C3=O)c2O)c(C)c1 [Compound P10] | 403
Cc1ccccc1-n1nc(C)c(C=C2C(=O)N(C3CCCCC3)C(=O)N(C3CCCCC3)C2=O)c1O [Compound P3] | 404

assay: Light fastness of adhesive film sample (change in transmittance ΔT); type: physicochemical; details: ΔT of transmittance for light of 390 to 450 nm; adhesive film sample with 0.29 part by weight compound; 55,600 lx*48 hours
Description: as §1, §2, §3, §4, §5

Compound | Light fastness
Cc1ccccc1-n1nc(C(C)C)c(C=C2C(=O)N(c3ccccc3)C(=O)N(c3ccccc3)C2=O)c1O [Compound P15] | ∘
O=C1C(=Cc2c(-c3ccccc3)nn(-c3ccccc3)c2O)C(=O)N(C2CCCCC2)C(=O)N1C1CCCCC1 [Compound P5] | Δ (ΔT more than 1.5% and 3% or less)
Cc1nn(-c2ccccc2)c(O)c1C=C1C(=O)N(C2CCCCC2)C(=O)N(C2CCCCC2)C1=O [Compound P1] | Δ (ΔT more than 1.5% and 3% or less)
Cc1ccccc1-n1nc(C(C)C)c(C=C2C(=O)N(C3CCCCC3)C(=O)N(C3CCCCC3)C2=O)c1O [Compound P9] | ∘
Cc1ccc(-n2nc(C(C)C)c(C=C3C(=O)N(C4CCCCC4)C(=O)N(C4CCCCC4)C3=O)c2O)c(C)c1 [Compound P10] | ∘
Cc1ccccc1-n1nc(C)c(C=C2C(=O)N(C3CCCCC3)C(=O)N(C3CCCCC3)C2=O)c1O [Compound P3] | ∘

assay: Moisture resistance of adhesive film sample (change in transmittance ΔT); type: physicochemical; details: ΔT of transmittance for light of 390 to 450 nm, 60° C., 90% RH for 500 hours
Description: as §1, §2, §3, §4, §5

Compound | Moisture resistance
Cc1ccccc1-n1nc(C(C)C)c(C=C2C(=O)N(c3ccccc3)C(=O)N(c3ccccc3)C2=O)c1O [Compound P15] | ∘
O=C1C(=Cc2c(-c3ccccc3)nn(-c3ccccc3)c2O)C(=O)N(C2CCCCC2)C(=O)N1C1CCCCC1 [Compound P5] | ∘
Cc1nn(-c2ccccc2)c(O)c1C=C1C(=O)N(C2CCCCC2)C(=O)N(C2CCCCC2)C1=O [Compound P1] | ∘
Cc1ccccc1-n1nc(C(C)C)c(C=C2C(=O)N(C3CCCCC3)C(=O)N(C3CCCCC3)C2=O)c1O [Compound P9] | ∘
Cc1ccc(-n2nc(C(C)C)c(C=C3C(=O)N(C4CCCCC4)C(=O)N(C4CCCCC4)C3=O)c2O)c(C)c1 [Compound P10] | ∘
Cc1ccccc1-n1nc(C)c(C=C2C(=O)N(C3CCCCC3)C(=O)N(C3CCCCC3)C2=O)c1O [Compound P3] | ∘

assay: Maximum absorption wavelength of the adhesive film (thin film), UV-vis; type: physicochemical; details: adhesive film 22 μm to 23 μm; UV-vis apparatus (Shimazu UV-3600)
Description: as §1, §2, §6

Compound | λmax (nm) (Thin film)
Cc1ccccc1-n1nc(C(C)C)c(C=C2C(=O)N(c3ccccc3)C(=O)N(c3ccccc3)C2=O)c1O [Compound P15] | 398
O=C1C(=Cc2c(-c3ccccc3)nn(-c3ccccc3)c2O)C(=O)N(C2CCCCC2)C(=O)N1C1CCCCC1 [Compound P5] | 406
Cc1nn(-c2ccccc2)c(O)c1C=C1C(=O)N(C2CCCCC2)C(=O)N(C2CCCCC2)C1=O [Compound P1] | 407
Cc1ccccc1-n1nc(C(C)C)c(C=C2C(=O)N(C3CCCCC3)C(=O)N(C3CCCCC3)C2=O)c1O [Compound P9] | 399
Cc1ccc(-n2nc(C(C)C)c(C=C3C(=O)N(C4CCCCC4)C(=O)N(C4CCCCC4)C3=O)c2O)c(C)c1 [Compound P10] | 398
Cc1ccccc1-n1nc(C)c(C=C2C(=O)N(C3CCCCC3)C(=O)N(C3CCCCC3)C2=O)c1O [Compound P3] | 400

assay: Wavelength compatibility (transmittance of sample in region with 450 nm or more); type: physicochemical; details: transmittance of adhesive film sample in region with wavelength of 450 nm or more
Protocol: as §2
• ◯: transmittance of 90% or more in region with 450 nm or more • Δ: transmittance of 80% or more in region with 450 nm or more • X: transmittance of 80% or less in region with 450 nm or more
The wavelength compatibility was evaluated as ◯, Δ, and X based on whether the transmittance in a region with 450 nm or more was 90% or more, 80% or more, or 80% or less, respectively.

Compound | Wavelength compatibility
Cc1ccccc1-n1nc(C(C)C)c(C=C2C(=O)N(c3ccccc3)C(=O)N(c3ccccc3)C2=O)c1O [Compound P15] | ∘
O=C1C(=Cc2c(-c3ccccc3)nn(-c3ccccc3)c2O)C(=O)N(C2CCCCC2)C(=O)N1C1CCCCC1 [Compound P5] | ∘
Cc1nn(-c2ccccc2)c(O)c1C=C1C(=O)N(C2CCCCC2)C(=O)N(C2CCCCC2)C1=O [Compound P1] | ∘
Cc1ccccc1-n1nc(C(C)C)c(C=C2C(=O)N(C3CCCCC3)C(=O)N(C3CCCCC3)C2=O)c1O [Compound P9] | ∘
Cc1ccc(-n2nc(C(C)C)c(C=C3C(=O)N(C4CCCCC4)C(=O)N(C4CCCCC4)C3=O)c2O)c(C)c1 [Compound P10] | ∘
Cc1ccccc1-n1nc(C)c(C=C2C(=O)N(C3CCCCC3)C(=O)N(C3CCCCC3)C2=O)c1O [Compound P3] | ∘

same assay, conditions: verbal assessment

Compound | wavelength compatibility (in words)
Cc1ccccc1-n1nc(C)c(C=C2C(=O)N(C3CCCCC3)C(=O)N(C3CCCCC3)C2=O)c1O [Compound P3] | excellent wavelength compatibility

assay: Solubility of compound in methyl ethyl ketone (MEK); type: physicochemical; details: solubility to 10 g of methyl ethyl ketone; 1 atm and room temperature
Protocol: as §2
• ◯: 0.3 wt. % or more • Δ: more than 0.1 wt. % and less than 0.3 wt. % • X: 0.1 wt. % or less

Compound | MEK solubility
Cc1ccccc1-n1nc(C(C)C)c(C=C2C(=O)N(c3ccccc3)C(=O)N(c3ccccc3)C2=O)c1O [Compound P15] | Δ (more than 0.1 wt. % and less than 0.3 wt. %)
O=C1C(=Cc2c(-c3ccccc3)nn(-c3ccccc3)c2O)C(=O)N(C2CCCCC2)C(=O)N1C1CCCCC1 [Compound P5] | Δ (more than 0.1 wt. % and less than 0.3 wt. %)
Cc1nn(-c2ccccc2)c(O)c1C=C1C(=O)N(C2CCCCC2)C(=O)N(C2CCCCC2)C1=O [Compound P1] | Δ (more than 0.1 wt. % and less than 0.3 wt. %)
Cc1ccccc1-n1nc(C(C)C)c(C=C2C(=O)N(C3CCCCC3)C(=O)N(C3CCCCC3)C2=O)c1O [Compound P9] | ∘
Cc1ccc(-n2nc(C(C)C)c(C=C3C(=O)N(C4CCCCC4)C(=O)N(C4CCCCC4)C3=O)c2O)c(C)c1 [Compound P10] | ∘
Cc1ccccc1-n1nc(C)c(C=C2C(=O)N(C3CCCCC3)C(=O)N(C3CCCCC3)C2=O)c1O [Compound P3] | ∘
